Data as given in patent publication US6037386A, “Composition for inactivating irritants in fluids” (priority 1999, dated 2000).

Key:
HIV = assay: Cidal concentration of CHG (1 minute kill), HIV; format: cell-based
Staphylococcus aureus = assay: CFU in glove fingers inoculated with blood containing Staphylococcus aureus (synergistic activity); format: cell-based; settings: 2 minutes; CHG 450 μg, ZnO 12.5 mg
Protocol: Synergistic Activity of Zinc Oxide and CHX. CHG, ZnO, and a combination thereof was added to each glove finger. Glove fingers were then inoculated with 0.1 mL of blood containing 10^5 CFU Staphylococcus aureusmL. After 2 minutes, 0.9 mL of LTSB was added, and 0.2 mL of the extract were plated to determine colony counts.
This experiment was carried out using the method described in Example 14.

HBV = assay: Cidal concentration of CHG (1 minute kill), HBV; format: cell-based
[1] = Product formed on mixing zinc salts with CHG / gel formation; format: physicochemical
Protocol: The following zinc salts were mixed with CHG for 1 hour and observed for the resulting product.

Compound	cidal concentration for HIV (1 minute kill) (HIV)	CFU/glove finger (Staphylococcus aureus) [CFU/glove finger]	cidal concentration for HBV (1 minute kill) (HBV)	gel formation (in words) [1]
N=C(NCCCCCCNC(=N)NC(=N)Nc1ccc(Cl)cc1)NC(=N)Nc1ccc(Cl)cc1 [CHG, chlorhexidine gluconate]	the same as that for Staphylococcus aureus	1420	the same as that for Staphylococcus aureus	
zinc gluconate				forming a gel matrix when mixed with water or alcohol
